# Reference: ChEMBL document CHEMBL3886724, “Oxazolidinone compounds and derivatives thereof” (2016)
# Biological target: T1, Poly [ADP-ribose] polymerase tankyrase-1 (Homo sapiens, UniProt O95271)
# T1 sequence (O95271 whole entry): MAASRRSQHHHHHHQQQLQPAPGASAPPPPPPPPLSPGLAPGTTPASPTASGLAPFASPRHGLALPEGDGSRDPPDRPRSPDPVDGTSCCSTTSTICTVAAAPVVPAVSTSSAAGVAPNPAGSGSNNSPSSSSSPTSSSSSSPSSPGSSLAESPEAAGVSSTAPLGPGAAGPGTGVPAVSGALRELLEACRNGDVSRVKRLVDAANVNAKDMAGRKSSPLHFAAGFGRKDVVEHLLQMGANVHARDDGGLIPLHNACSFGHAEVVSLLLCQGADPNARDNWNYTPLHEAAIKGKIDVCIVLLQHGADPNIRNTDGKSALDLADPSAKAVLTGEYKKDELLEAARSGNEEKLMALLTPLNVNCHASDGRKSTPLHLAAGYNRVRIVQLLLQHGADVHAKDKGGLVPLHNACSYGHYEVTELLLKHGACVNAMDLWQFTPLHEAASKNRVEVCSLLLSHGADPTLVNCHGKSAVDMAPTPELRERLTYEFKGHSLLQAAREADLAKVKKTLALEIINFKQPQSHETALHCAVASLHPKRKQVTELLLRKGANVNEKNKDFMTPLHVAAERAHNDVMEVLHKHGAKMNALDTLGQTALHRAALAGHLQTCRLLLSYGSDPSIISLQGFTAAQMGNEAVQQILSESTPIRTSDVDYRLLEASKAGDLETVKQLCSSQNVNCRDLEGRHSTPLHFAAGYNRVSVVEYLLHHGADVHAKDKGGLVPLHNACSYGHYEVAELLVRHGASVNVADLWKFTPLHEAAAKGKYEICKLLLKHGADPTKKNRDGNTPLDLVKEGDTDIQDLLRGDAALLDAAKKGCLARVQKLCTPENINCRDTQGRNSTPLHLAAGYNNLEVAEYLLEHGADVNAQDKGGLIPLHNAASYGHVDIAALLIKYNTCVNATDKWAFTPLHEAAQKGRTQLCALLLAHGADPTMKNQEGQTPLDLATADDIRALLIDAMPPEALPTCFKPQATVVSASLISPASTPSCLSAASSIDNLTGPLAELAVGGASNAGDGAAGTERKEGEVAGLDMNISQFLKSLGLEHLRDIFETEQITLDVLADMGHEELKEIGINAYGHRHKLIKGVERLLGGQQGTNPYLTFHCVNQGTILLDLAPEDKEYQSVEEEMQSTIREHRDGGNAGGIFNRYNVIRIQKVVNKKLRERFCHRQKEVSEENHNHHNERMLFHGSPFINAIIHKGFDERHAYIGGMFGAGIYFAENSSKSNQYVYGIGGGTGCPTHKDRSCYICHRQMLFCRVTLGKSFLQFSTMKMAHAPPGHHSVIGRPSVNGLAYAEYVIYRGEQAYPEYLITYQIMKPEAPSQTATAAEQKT
# Test: Tankyrase Biochemical Assays: The tankyrase 1 biochemical activity of the compounds was assayed in the following assay buffer (50 mM MOPS pH7.5, 100 mM NaCl, […] MgCl2, 0.01% Tween-20, 0.05% BSA, and 1 mM DTT) as follows: […] of 6×HIS-tankyrase 1 (1091-1325) was incubated in the presence of compound (DMSO […] final) in a Perkin Elmer 384 well Proxiplate Plus™ (cat. no. 6008289) with 400 n
row,IC50,Structure (SMILES)
1,167 nM,CC1(C)OC(=O)N(c2ccc(-c3cc(-c4ncco4)c[nH]c3=O)cc2)[C@H]1c1ccccc1
2,5.18 nM,CC1(C)OC(=O)N([C@H]2CC[C@H](NC(=O)c3csc(-c4ccccc4)n3)CC2)[C@H]1c1ccccc1
3,11.4 nM,CC1(C)OC(=O)N([C@H]2CC[C@H](NC(=O)c3ccnc(-c4ccccc4)n3)CC2)[C@H]1c1ccccc1
